Laboratory results as given in US11008336B2, “Compounds useful for inhibiting RORγt” (Eli Lilly and Company, priority 2017, dated 2021).

How the values were obtained:
PBMC = experiment: cells; format: cell-based; settings: Homo sapiens, 48 h, read-out: Cell TiterGlo Viability (EC50, μM)
Method: PBMC's are isolated from whole blood buffy coats by first combining fresh buffy coats with equal volumes of phosphate buffered saline. Thirty five mL of PBS/buffy coat solution are then gently overlaid onto 15 mL of Ficoll in 50 mL conical tubes. Following centrifugation for 30 minutes at 500×g (with slow acceleration and deceleration) the top layer of plasma is discarded and the layer of cells along the Ficoll interface is collected and pooled. […] Tubes are spun for 10 minutes at 500×G (with slow acceleration and deceleration), the media is removed by aspiration, and the wash step is repeated.
Cells are spun down for 5 minutes and the cell pellet is resuspended in complete media. Clumps of cells are broken up by running the cell solution through a 23 gauge syringe needle and a 40 μM cell strainer.
Equal volumes of Cell TITERGLO® cell viability testing reagent (Promega Cat #G7573) are added to the cells remaining in the plates, and following a fifteen minute incubation with gentle shaking at room temperature luminescence is measured with the Envision multi-label plate reader. Percent cell death is calculated by setting 100% activity (cell death) to zero luminescence units and minimum activity (max number of viable cells) as the average luminescence units of wells containing stimulants alone and no added compound. IC50's are calculated using a standard four parameter fit.

[1] = target: human RORg ligand binding domain fused to yeast GAL4 DNA binding domain (Homo sapiens (Human), UniProt P51449); experiment: HEK293 RORg GAL4 receptor-reporter assay; format: cell-based; settings: HEK293 cells, RORg-GAL4/pGL4.31 luciferase, 18 hours; mean ± standard deviation; read-out: hIC50
Chain of human RORg ligand binding domain fused to yeast GAL4 DNA binding domain (P51449 269-508): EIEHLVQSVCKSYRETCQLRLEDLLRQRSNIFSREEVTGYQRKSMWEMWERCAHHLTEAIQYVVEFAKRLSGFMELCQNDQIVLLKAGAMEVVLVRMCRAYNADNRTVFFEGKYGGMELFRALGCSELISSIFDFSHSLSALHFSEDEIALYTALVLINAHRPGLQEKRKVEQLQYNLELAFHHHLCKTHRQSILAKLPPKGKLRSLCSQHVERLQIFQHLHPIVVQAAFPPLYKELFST

[2] = system: anti-CD3/anti-CD28/IL-23 stimulated IL-17 secretion in PBMC's; experiment: PBMC IL-17 secretion ELISA; format: cell-based; settings: Homo sapiens, anti-CD3/anti-CD28/IL-23 stimulation, 48 hours, mean ± standard deviation, read-out: hPBMC IL-17 ELISA (EC50)
Method: PBMC's are isolated from whole blood buffy coats by first combining fresh buffy coats with equal volumes of phosphate buffered saline. Thirty five mL of PBS/buffy coat solution are then gently overlaid onto 15 mL of Ficoll in 50 mL conical tubes. Following centrifugation for 30 minutes at 500×g (with slow acceleration and deceleration) the top layer of plasma is discarded and the layer of cells along the Ficoll interface is collected and pooled. Each 250 mL tube is filled to the top with room temperature RPMI-1640 media. Tubes are spun for 10 minutes at 500×G (with slow acceleration and deceleration), the media is removed by aspiration, and the wash step is repeated. Cells are resuspended in ice cold Recovery Cell Culture Freezing Medium from Life Technologies (Catalog number 12648-010) on ice. The cell concentration is adjusted to 66.7 million cells/mL. Cell are slow frozen at −1° C./minute in vials with 100 million cells and stored in liquid nitrogen.
PBMC are brought out of thaw by resuspending with 1 mL of complete media (RPMI-1640 containing 30 mM HEPES, 100 units/mL penicillin, 100 μg/mL streptomycin, 3.25 mM L-Glutamine, 0.2 μM beta-mercaptoethanol, and 10% FBS) followed by the drop wise addition of 2 mL, 4 mL, 8 mL, and 16 mL of complete media with gentle swirling. Cells are spun down for 5 minutes and the cell pellet is resuspended in complete media. Clumps of cells are broken up by running the cell solution through a 23 gauge syringe needle and a […] cell strainer. One hundred thousand cells per well are added to 384 well polystyrene tissue culture treated flat bottomed plates in a total of 30 μL. Stimulation cocktail containing anti-human CD3 antibody, anti-human CD28 antibody, IL-23 and compounds prepared in complete media are added to the cells simultaneously in a total volume of 30 μL. The final concentration of added stimulants is 160 ng/mL, 500 ng/mL, and 5 ng/mL for anti-CD3 antibody, anti-CD28 antibody, and IL-23 respectively and 0.3% for DMSO. Plates are sealed with AERASEAL® sealing film and incubated for 48 hours at 37° C., 95% humidity, and 5% CO2.
Following the incubation period, the plates are spun at 200×g for five minutes. Supernatants are diluted 1:1 with equal volume 1% BSA/PBS and tested for IL-17 with a human IL-17 ELISA kit from R&D system (catalog #D317E) according to the protocol provided with the kit with one exception—the colorimetric substrate OPD (o-phenylenediamine dihydrochloride, Sigma Cat #P6912) is used instead of the substrate supplied in the kit. Absorbance at 492 nm is measured with the Envision multi-label plate reader. A492 values are converted to concentration of IL-17 based on the IL-17 standard curve as shown below: pg/mL IL-17=EC50*[[(Top-Bottom)/(A492-Bottom)]-1](1/-Hill). IC50's for inhibition of IL-17 secretion is calculated based on converted values using a standard 4-parameter fit with maximum inhibition determined from the average values of wells with no added stimulants nor compounds and minimum inhibition from the average values of wells with stimulants alone and no added compound.

[3] = target: human RAR-related orphan receptor alpha (hRORα) (Homo sapiens (Human), UniProt P35398); experiment: RORα receptor-ligand competition binding assay; settings: His-tagged hRORα, [3H]-25-hydroxycholesterol; mean ± standard deviation; read-out: RORa Ki
Chain of human RAR-related orphan receptor alpha (hRORα) (P35398 whole entry): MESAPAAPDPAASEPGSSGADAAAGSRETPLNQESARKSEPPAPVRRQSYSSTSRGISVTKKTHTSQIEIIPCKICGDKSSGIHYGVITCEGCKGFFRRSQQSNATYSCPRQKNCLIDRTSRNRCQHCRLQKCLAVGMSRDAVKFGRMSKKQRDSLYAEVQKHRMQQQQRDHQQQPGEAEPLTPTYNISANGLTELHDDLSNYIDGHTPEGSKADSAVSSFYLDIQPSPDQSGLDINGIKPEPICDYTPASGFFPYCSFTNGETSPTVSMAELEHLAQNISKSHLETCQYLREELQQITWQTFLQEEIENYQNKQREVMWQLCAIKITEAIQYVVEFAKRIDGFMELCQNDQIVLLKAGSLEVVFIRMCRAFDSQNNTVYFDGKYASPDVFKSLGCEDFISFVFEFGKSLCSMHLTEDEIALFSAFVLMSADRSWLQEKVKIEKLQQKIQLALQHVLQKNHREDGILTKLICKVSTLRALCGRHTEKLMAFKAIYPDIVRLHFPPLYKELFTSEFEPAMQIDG
Method: (§1) His-tagged human RAR-related orphan receptor alpha (hRORα), human RAR-related orphan receptor beta (hRORβ), and human RAR-related orphan receptor gamma (hRORγ) are used for receptor-ligand competition binding assays to determine Ki values. Typical procedures are provided below.
(§2) The final wells contain 20 μg/mL aprotinin and 20 μg/mL leupeptin and 10 μM Pefabloc. Typically, receptor binding assays include radio-labeled ligands, such as 7 nM [^3H]-25-hydroxycholesterol for alpha binding, 20 nM [^3H]-3-[[4-[[3-(2,6-dichlorophenyl)-5-isopropyl-isoxazol-4-yl]methoxy]-N,2-dimethyl-anilino]methyl]benzoic acid for beta binding, and 6 nM [3H]-25-hydroxycholesterol for gamma binding, and 0.5 μg RORα receptor, 0.03 μg RORβ receptor, or 0.13 μg RORγ receptor per well. Assays are typically run in 96-well format. […] Plates are mixed for 30 minutes on an orbital shaker at room temperature. After an incubation of 4 hours, plates are read in a Wallac MICROBETA® counter.
(§3) The data are used to calculate an estimated IC50 using a four parameter logistic fit. The Kd for [^3H]-25-hydroxycholesterol for RORa and RORg, and [^3H]-3-[[4-[[3-(2,6-dichlorophenyl)-5-isopropyl-isoxazol-4-yl]methoxy]-N,2-dimethyl-anilino]methyl]benzoic acid for RORb binding, is determined by saturation binding. The IC50 values for compounds are converted to Ki using the Cheng-Prushoff equation.

[4] = target: human RAR-related orphan receptor beta (hRORβ) (Homo sapiens (Human), UniProt Q92753); experiment: RORβ receptor-ligand competition binding assay; settings: His-tagged hRORβ; mean ± standard deviation; read-out: RORb Ki
Chain of human RAR-related orphan receptor beta (hRORβ) (Q92753 whole entry): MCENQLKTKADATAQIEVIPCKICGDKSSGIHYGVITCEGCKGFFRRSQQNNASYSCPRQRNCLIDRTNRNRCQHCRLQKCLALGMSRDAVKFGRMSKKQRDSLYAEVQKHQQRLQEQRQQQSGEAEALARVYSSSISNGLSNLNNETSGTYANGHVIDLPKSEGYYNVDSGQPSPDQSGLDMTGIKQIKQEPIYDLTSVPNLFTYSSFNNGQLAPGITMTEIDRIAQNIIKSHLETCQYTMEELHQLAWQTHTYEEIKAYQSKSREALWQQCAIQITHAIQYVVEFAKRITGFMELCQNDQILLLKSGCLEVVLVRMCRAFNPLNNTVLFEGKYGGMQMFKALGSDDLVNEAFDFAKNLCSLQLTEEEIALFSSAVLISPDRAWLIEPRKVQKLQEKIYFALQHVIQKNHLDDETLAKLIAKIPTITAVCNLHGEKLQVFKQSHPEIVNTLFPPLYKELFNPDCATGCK
Method: as §1, §2, §3

[5] = target: human RAR-related orphan receptor gamma (hRORγ) (Homo sapiens (Human), UniProt P51449); experiment: RORγ receptor-ligand competition binding assay; settings: His-tagged hRORγ, [3H]-25-hydroxycholesterol; mean ± standard deviation; read-out: RORg Ki
Chain of human RAR-related orphan receptor gamma (hRORγ) (P51449 whole entry): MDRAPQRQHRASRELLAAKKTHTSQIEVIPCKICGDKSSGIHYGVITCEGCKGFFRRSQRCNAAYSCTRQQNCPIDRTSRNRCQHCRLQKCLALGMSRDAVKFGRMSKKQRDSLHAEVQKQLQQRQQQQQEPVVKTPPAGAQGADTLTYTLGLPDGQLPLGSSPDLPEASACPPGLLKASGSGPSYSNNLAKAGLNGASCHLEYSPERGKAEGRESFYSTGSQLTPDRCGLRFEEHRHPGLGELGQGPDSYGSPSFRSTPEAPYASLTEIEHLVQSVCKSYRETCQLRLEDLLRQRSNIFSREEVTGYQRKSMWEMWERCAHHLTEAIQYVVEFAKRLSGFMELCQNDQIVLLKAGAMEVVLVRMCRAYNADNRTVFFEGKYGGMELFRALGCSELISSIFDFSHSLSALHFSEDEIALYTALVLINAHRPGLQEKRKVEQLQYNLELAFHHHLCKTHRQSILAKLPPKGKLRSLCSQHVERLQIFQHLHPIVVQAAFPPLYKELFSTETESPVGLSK
Method: as §1, §2, §3

[6] = system: GPI induced arthritis in DBA/1 mice; experiment: Glucose-6-phosphate isomerase (GPI) induced arthritis model; format: in vivo, mouse; settings: 100 mg/Kg orally once daily
Method: The GPI induced arthritis model is adapted from K. Iwanami et al Arthritis Rheumatism 58, 754-763, 2008 and D. Schubert et al. J Immunology 172, 4503-4509, 2004. Mice (8-9 week old male DBA/1 mice) (Harlan) are randomly assigned into treatment groups based on body weights collected on the day of immunization (day 0). On the day of immunization (day 0), a 1:1 (v:v) mixture of recombinant human GPI (diluted to 4 mg/mL in PBS, Gibco) and complete Freund's adjuvant (CFA, Sigma) is mixed on a high speed homogenizer (Omni) for 40 minutes in a cold room. A final concentration of 2 mg/mL GPI is achieved in the emulsion. Mice are injected at the base of the tail (2 sites of injection, subcutaneously, 100 μL each site) with the GPI emulsion. Test compounds are dosed orally starting on the same day as immunization (day 0). Starting on day 0, each paw is scored for severity of joint swelling based on a 0 to 3 scoring system (See K. Iwanami et al Arthritis Rheumatism 58, 754-763, 2008. The clinical score represents the total score of all 4 paws (maximum score=12). Clinical scores are assessed on days 0, 2, 4, 7, 8, 9, 10, 11, 12, 14, 16, 18, and 21.
The AUC is calculated by a trapezoid method for clinical score over time from the day of immunization (day 0) to day 21. Test p-values were derived from Student's t-test.

Structure (SMILES) | EC50 (PBMC) [µM] | IC50 [1] [nM] | EC50 [2] [nM] | Ki [3] [nM] | Ki [4] [nM] | Ki [5] [nM] | severity of paw swelling and mean clinical scores compared to the vehicle group [6] | reduction in clinical score AUC ([6]; compared to the vehicle group) [%] | Clinical Score AUC (mean ± SEM) ([6]; day 0 to day 21, male DBA/1 mice)
CCS(=O)(=O)c1ccc(CNC(=O)c2cc3c(s2)C2(CCN(C(C)c4cnc(C(F)(F)F)nc4C)CC2)O[C@@H](C)C3)cc1 (single isomer, unassigned; isomer 1) [Example 66, (5′S)-N-[4-(Ethylsulfonyl)benzyl]-5′-methyl-1-{1-[4-methyl-2-(trifluoromethyl)pyrim-idin-5-yl]ethyl}-4′,5′-dihydrospiro[piperidine-4,7′-thieno[2,3-c]pyran]-2′-carboxamide isomer 1] | > 1 | 31.4 ± 11.2 | 13.3 ± 4.7 |  |  |  |  |  | 
CCS(=O)(=O)c1ccc(CNC(=O)c2cc3c(s2)C2(CCN(C(C)c4ccc(C(F)(F)F)nc4)CC2)OC(C)C3)cc1 (single isomer, unassigned; isomer 2) [Example 42, N-[4-(Ethylsulfonyl)benzyl]-5′-methyl-1-{1-[6-(trifluoromethyl)pyridin-3-yl]ethyl}-4′,5′-dihydrospiro[piperidine-4,7′-thieno[2,3-c]pyran]-2′-carboxamide isomer 2] | > 1 | 19.9 ± 10.7 | 8.3 ± 3.8 | > 20400 | > 12500 | 4.42 ± 2.7 |  |  | 
CCS(=O)(=O)c1ccc(CNC(=O)c2cc3c(s2)C2(CCN(C(C)c4ccc(C(F)(F)F)nc4)CC2)OC(C)C3)nc1 (single isomer, unassigned; isomer 2) [Example 46, N-{[5-(Ethylsulfonyl)pyridin-2-yl]methyl}-5′-methyl-1-{1-[6-(trifluoromethyl)pyridin-3-yl]ethyl}-4′,5′-dihydrospiro[piperidine-4,7′-thieno[2,3-c]pyran]-2′-carboxamide isomer 2] | > 1 |  | 24.5 ± 11.9 | > 20400 |  |  |  |  | 
CCS(=O)(=O)c1ccc(CNC(=O)c2cc3c(s2)C2(CCN(C(C)c4cnc(C(F)(F)F)s4)CC2)O[C@@H](C)C3)nc1 (single isomer, unassigned; isomer 2) [Example 55, (5′S)-N-{[5-(Ethylsulfonyl)pyridin-2-yl]methyl}-5′-methyl-1-{1-[2-(trifluoromethyl)-1,3-thiazol-5-yl]ethyl}-4′,5′-dihydrospiro[piperidine-4,7′-thieno[2,3-c]pyran]-2′-carboxamide isomer 2] | > 1 |  | 12.6 ± 8.1 |  | > 12500 |  | reduces severity of paw swelling and maintains lower mean clinical scores | 94 | 7.50 ± 2.08
CCS(=O)(=O)c1ccc(CNC(=O)c2cc3c(s2)C2(CCN(C(C)c4cnc(C(F)(F)F)nc4C)CC2)O[C@@H](C)C3)nc1 (single isomer, unassigned; isomer 2) [Example 69, (5′S)-N-{[5-(Ethylsulfonyl)pyridin-2-yl]methyl}-5′-methyl-1-{1-[4-methyl-2-(trifluoromethyl)pyrim-idin-5-yl]ethyl}-4′,5′-dihydrospiro[piperidine-4,7′-thieno[2,3-c]pyran]-2′-carboxamide isomer 2] | > 1 | 15.4 ± 13.4 | 30 ± 18.5 |  |  |  |  |  | 
CCS(=O)(=O)c1ccc(CNC(=O)c2cc3c(s2)C2(CCN([C@H](C)c4cnc(C(F)(F)F)nc4)CC2)O[C@@H](C)C3)cc1 [Example 16, (5′S)—N-[4-(Ethylsulfonyl)benzyl]-5′-methyl-1-{(1R)-1-[2-(trifluoromethyl)pyrimidin-5-yl]ethyl}-4′,5′-dihydrospiro[piperidine-4,7′-thieno[2,3-c]pyran]-2′-carboxamide] | > 1 |  |  |  | > 12500 |  |  |  | 
CCS(=O)(=O)c1ccc(CNC(=O)c2cc3c(s2)C2(CCN(Cc4ccc(-c5ncon5)cc4F)CC2)O[C@@H](C)C3)nc1 [Example 25, (5′S)-N-{[5-(Ethylsulfonyl)pyridin-2-yl]methyl}-1-[2-fluoro-4-(1,2,4-oxadiazol-3-yl)benzyl]-5′-methyl-4′,5′-dihydrospiro[piperidine-4,7′-thieno[2,3-c]pyran]-2′-carboxamide] | > 1 | 16.2 ± 9.7 | 30.8 ± 25.7 |  |  | 6.04 ± 1.19 |  |  | 
CCS(=O)(=O)c1ccc(CNC(=O)c2cc3c(s2)C2(CCN([C@@H](C)c4ccc(C#N)cc4)CC2)OCC3)cc1 [Example 64, 1-[(1S)-1-(4-Cyanophenyl)ethyl]-N-[4-(ethylsulfonyl)benzyl]-4′,5′-dihydrospiro[piperidine-4,7′-thieno[2,3-c]pyran]-2′-carboxamide] | > 3 |  |  |  | > 22700 |  |  |  | 
